Measured values reported in the Deep4Chem optical property database.
Several values for one entry are separate records, joined by “and”; a condition that tells them apart may be missing. Equal entries are not always repeated. Blank lines part the entries; values can stand above or below the compound they belong to.

Assay: photoluminescence quantum yield (fraction); solvent given as SMILES
[1] = in c1ccc2c(c1)c1ccccc1n2-c1ccc(-c2ccc(-n3c4ccccc4c4ccccc43)cc2)cc1

photoluminescence quantum yield (in CN(C)C=O): 0.066
SMILES: O=C([O-])c1ccc(C(=O)[O-])c2cc3ccccc3cc12

photoluminescence quantum yield (in CC#N): 0.44
photoluminescence quantum yield (in CCCCCC): 0.34
photoluminescence quantum yield (in CCOC(C)=O): 0.36
photoluminescence quantum yield (in CO): 0.42
photoluminescence quantum yield (in ClCCl): 0.43
SMILES: CCCSC1=[N+]2C(=C(c3ccccc3)c3ccc(SCCC)n3[B-]2(F)F)C=C1

photoluminescence quantum yield (in C1CCCCC1): 0.72
photoluminescence quantum yield (in CC#N): 0.76
SMILES: CN(C)c1ccc(-c2nc3cccnc3[nH]2)cc1

photoluminescence quantum yield (in CC#N): 0.045
photoluminescence quantum yield (in CCCCCCC): 0.008
photoluminescence quantum yield (in CO): 0.002
photoluminescence quantum yield (in O): 0.003
SMILES: CC(=O)n1cc(/C=C/c2ccc([N+](=O)[O-])cc2)c2ccccc21

photoluminescence quantum yield (in O): 0.29
SMILES: COc1ccc(C2=C3C=CC(=[N+](C)C)C=C3[Si](C)(C)c3cc(N(C)C)ccc32)c(C)c1

photoluminescence quantum yield (in CCO): 0.839
SMILES: Cc1c(COC(=O)c2ccccc2)n2c(OCC(=O)c3ccccc3)c(C)c(=O)n2c1=O

photoluminescence quantum yield (in ClCCl): 0.52
SMILES: COc1ccc(C#Cc2ccc3nc4ccc(C#Cc5ccc(OC)cc5)cn4c(=O)c3c2)cc1

photoluminescence quantum yield (in CC#N): 0.012
photoluminescence quantum yield (in CCCCCC): 0.005
SMILES: Cc1ccc(C)n1-c1ccccc1

photoluminescence quantum yield (in c1cc(-c2cccc(-n3c4ccccc4c4ccccc43)c2)cc(-n2c3ccccc3c3ccccc32)c1): 0.47
SMILES: Cc1cc2cc(N3c4ccccc4Oc4ccccc43)ccc2c(=O)o1

photoluminescence quantum yield (in ClCCl): 0.57
SMILES: CCCCC(CC)COc1cc(OCC(CC)CCCC)c2c#cc3ccc4oc5ccc(c#cc6cc(c#cc7ccc8oc9ccc(c#cc1c2)cc9c8c7)c(C(CCCC)OCCC)cc6C(CCCC)OCCC)cc5c4c3 (configuration not stated)

photoluminescence quantum yield (in ClCCl): 0.05
SMILES: N#CC(C#N)=Cc1ccc2c(c1)c1ccccc1n2-c1cccc2ccccc12

photoluminescence quantum yield (in CC1CCCCC1): 0.7
photoluminescence quantum yield (in CC#N): 0.58
SMILES: C(=C\c1c2ccccc2cc2ccccc12)/c1cnc2ccccc2c1

photoluminescence quantum yield (in CC#N): 0.17
photoluminescence quantum yield (in CCCCCC): 0.24
SMILES: c1ccc(-n2cccc2)cc1

photoluminescence quantum yield (in CC#N): 0.837
SMILES: N#Cc1nn(-c2cc(F)cc(F)c2)nc1N1CCCC1

photoluminescence quantum yield (in C1CCOC1): 0.27
SMILES: CCCCCOc1cc2oc(=O)c3c4ccc(O)cc4c4ccc5cccc6c(c1)c2c3c4c56

photoluminescence quantum yield (in CCO): 0.04
SMILES: N#CC1=C(c2ccc(-c3cccs3)s2)CCC1

photoluminescence quantum yield (in CC#N): 0.017
SMILES: Cc1sc(Cl)cc1-c1nc(-c2ccccc2)[nH]c1-c1cc(Cl)sc1C

photoluminescence quantum yield (in CCO): 0.39
photoluminescence quantum yield (in ClC(Cl)Cl): 0.19
SMILES: COc1ccc2c(-c3nc(-c4ccccc4Cl)no3)cc(=O)oc2c1

photoluminescence quantum yield (in CCOC(C)=O): 0.35
SMILES: CCn1c(-c2ccc(-c3cccc4ccccc34)cc2)c(-c2ccc3ccccc3c2)c(-c2ccc3ccccc3c2)c1-c1ccc(-c2cccc3ccccc23)cc1

photoluminescence quantum yield (in C1CCOC1): 0.83
SMILES: COc1ccc(-c2cnc3nn4ccccc4c3n2)cc1

photoluminescence quantum yield (in CCCCCC): 0.15
SMILES: CC(C)[Si](C#Cc1c2cc3ccccc3cc2c(C#C[Si](C(C)C)(C(C)C)C(C)C)c2nc3c(nc12)Cc1ccccc1-3)(C(C)C)C(C)C

photoluminescence quantum yield (in c1ccccc1): 0.358
SMILES: Cc1nc2c(ccc3ccc(O)cc32)oc1=O

photoluminescence quantum yield (in ClC(Cl)Cl): 0.002
SMILES: CC1=CC(C)=[N+]2C1=C(c1ccc(I)cc1)c1c(C)cc(C)n1[B-]21Oc2ccc3ccccc3c2-c2c(ccc3ccccc23)O1

photoluminescence quantum yield (in C1COCCO1): 0
SMILES: CCC1=C(C2=C(C3=C(CC)S(=O)(=O)c4cc(-c5ccc(C(C)=O)s5)ccc43)C(F)(F)C(F)(F)C2(F)F)c2ccc(-c3ccc(C(C)=O)s3)cc2S1(=O)=O

photoluminescence quantum yield (in CC#N): 0.04
photoluminescence quantum yield (in CCCCCC): 0.11
SMILES: Cc1cccc(C)c1Nc1ccc(/C=C/c2ccccc2)cc1

photoluminescence quantum yield (in C1CCCCC1): 0.32
photoluminescence quantum yield (in CC#N): 0.28
SMILES: C=Cc1cccc(OC)c1

photoluminescence quantum yield (in CC(C)O): 0.09
SMILES: CCN1C(=CC2=C([O-])C(=CC3=[N+](CC)c4ccccc4C3(C)C)C2=O)C(C)(C)c2ccccc21

photoluminescence quantum yield (in CC#N): 0.034
SMILES: COC(=O)C12N=N[C@](C(=O)OC)(C3C4C=CC(C4)C31)[C@@H]1C[C@H]12 (some centres not stated)

photoluminescence quantum yield (in CS(C)=O): 0.49
SMILES: Brc1ccc(-c2nc(-c3ccc(-c4nc(-c5ccc(Br)cc5)c(-c5ccc(Br)cc5)[nH]4)cc3)[nH]c2-c2ccc(Br)cc2)cc1

photoluminescence quantum yield (in CS(C)=O): 0.14
SMILES: Cc1ccc(N/C=C/C=[NH+]c2ccc(C)cc2)cc1

photoluminescence quantum yield (in C1COCCO1): 0.11
photoluminescence quantum yield (in CCO): 0.11
photoluminescence quantum yield (in O): 0.009
photoluminescence quantum yield (in OCCO): 0.13
SMILES: CC1=CC(=[N+]2CCC2)C=C2C1=Nc1c(C)cc(N3CCC3)cc1[Si]2(C)C

Second part, the compound before the results:

SMILES: Cc1ccc2c(c1)C1(c3ccccc3-c3ccccc31)c1cc(C)ccc1N2c1ccc(-c2ncccn2)cc1
photoluminescence quantum yield (in O=P(c1ccccc1)(c1ccccc1)c1ccc2oc3ccc(P(=O)(c4ccccc4)c4ccccc4)cc3c2c1): 0.91

SMILES: Cc1cc(C(F)(F)F)nc2c1ccc1nc(-c3ccc(Cl)cc3)cn12
photoluminescence quantum yield (in CC#N): 0.84
photoluminescence quantum yield (in CCCCOC(C)=O): 0.76
photoluminescence quantum yield (in CCOC(C)=O): 0.9
photoluminescence quantum yield (in CO): 0.78
photoluminescence quantum yield (in ClC(Cl)Cl): 0.64
photoluminescence quantum yield (in c1ccccc1): 0.88

SMILES: CC(C)(C)c1ccc2c(c1)c1cc(C(C)(C)C)ccc1n2-c1ccc(S(=O)(=O)c2ccc(-n3c4ccc(C(C)(C)C)cc4c4cc(C(C)(C)C)ccc43)cc2)cc1
photoluminescence quantum yield (in Cc1ccccc1): 0.69

SMILES: C(#Cc1ccc2ncsc2c1)c1ccc(N(c2ccc(C#Cc3ccc4ncsc4c3)cc2)c2ccc(C#Cc3ccc4ncsc4c3)cc2)cc1
photoluminescence quantum yield (in Cc1ccccc1): 0.53

SMILES: CCC(C)(C)c1ccc2c(c1)C(CCOC)(CCOC)c1cc(-c3ccc4c(c3)C(CCOC)(CCOC)c3cc(C(C)(C)CC)ccc3-4)ccc1-2
photoluminescence quantum yield (in C1CCCCC1): 0.61

SMILES: CC1=[N+]2C(=C(c3ccc(N4CCCCC4)cc3)c3ccc(C)n3[B-]2(F)F)C=C1
photoluminescence quantum yield (in C1CCCCC1): 0.33
photoluminescence quantum yield (in C1CCOC1): 0.01 and 0.008
photoluminescence quantum yield (in CC#N): 0.003 and 0.002
photoluminescence quantum yield (in CC(=O)C(C)(C)C): 0.004
photoluminescence quantum yield (in CC(C)=O): 0.002
photoluminescence quantum yield (in CCCCCC): 0.341
photoluminescence quantum yield (in CCOC(C)=O): 0.006 and 0.005
photoluminescence quantum yield (in CO): 0.005 and 0.003
photoluminescence quantum yield (in Cc1ccccc1): 0.13
photoluminescence quantum yield (in ClC(Cl)Cl): 0.077

SMILES: Cc1cc(-n2c3ccccc3c3cc4c(cc32)C2c3ccccc3C4c3ccccc32)c(C)cc1-c1nc(-c2ccccc2)nc(-c2ccccc2)n1
photoluminescence quantum yield (in Cc1ccccc1): 0.46
photoluminescence quantum yield (in O=P(c1ccccc1)(c1ccccc1)c1ccccc1Oc1ccccc1P(=O)(c1ccccc1)c1ccccc1): 0.3

SMILES: CC(=O)[B-]1(C(C)=O)OC(c2ccc3ccccc3c2)=CC(c2ccc3ccccc3c2)=[O+]1
photoluminescence quantum yield (in CC#N): 0.56
photoluminescence quantum yield (in ClC(Cl)(Cl)Cl): 0.61

SMILES: N#Cc1c(-n2c3ccccc3c3ccccc32)c(F)c(-n2c3ccccc3c3ccccc32)c(F)c1-n1c2ccccc2c2ccccc21
photoluminescence quantum yield (in Cc1ccccc1): 0.76
photoluminescence quantum yield (in c1ccc([Si](c2ccccc2)(c2ccc(-n3c4ccccc4c4ccccc43)cc2)c2ccc(-n3c4ccccc4c4ccccc43)cc2)cc1): 0.74

SMILES: CC1=CC(c2ccc(N(C)C)cc2)=[N+]2C1=Nc1c(C)cc(-c3ccc(N(C)C)cc3)n1[B-]2(F)F
photoluminescence quantum yield (in C1CCOC1): 0.13
photoluminescence quantum yield (in CS(C)=O): 0.01
photoluminescence quantum yield (in Cc1ccccc1): 0.21

SMILES: Cc1c(C2=[N+]3C(=Cc4c(C)c5ccccc5n4[B-]3(F)F)c3ccccc32)[nH]c2ccccc12
photoluminescence quantum yield (in C1CCOC1): 0.04
photoluminescence quantum yield (in CC#N): 0.04
photoluminescence quantum yield (in CCCCCC): 0.14
photoluminescence quantum yield (in CO): 0.03
photoluminescence quantum yield (in Cc1ccccc1): 0.14
photoluminescence quantum yield (in ClCCl): 0.08

SMILES: c1cc2c3c(cccc3c1)NC(c1ccc3ccc4cccc5ccc1c3c45)N2
photoluminescence quantum yield (in CC#N): 0.24
photoluminescence quantum yield (in CO): 0.05
photoluminescence quantum yield (in CS(C)=O): 0.08
photoluminescence quantum yield (in Cc1ccccc1): 0.51

SMILES: Cc1ccc2ccccc2c1
photoluminescence quantum yield (in C1CCCCC1): 0.52

SMILES: CCNc1ccc2c(C(F)(F)F)cc(=O)oc2c1
photoluminescence quantum yield (in C1CCC2CCCCC2C1): 0.72
photoluminescence quantum yield (in C1CCCCC1): 0.74
photoluminescence quantum yield (in CC1CCCCC1): 0.77
photoluminescence quantum yield (in CC#N): 0.56
photoluminescence quantum yield (in CC(C)=O): 0.53
photoluminescence quantum yield (in CC(C)O): 0.54
photoluminescence quantum yield (in CCC(C)CC): 0.75
photoluminescence quantum yield (in CCCC(C)C): 0.77
photoluminescence quantum yield (in CCCCCC): 0.76
photoluminescence quantum yield (in CCCCCCO): 0.54
photoluminescence quantum yield (in CCCCO): 0.53
photoluminescence quantum yield (in CCO): 0.47
photoluminescence quantum yield (in CCOC(C)=O): 0.61
photoluminescence quantum yield (in CO): 0.46

SMILES: Cc1ccc(-c2cnc3nn4ccccc4c3n2)cc1
photoluminescence quantum yield (in C1CCOC1): 0.26

SMILES: COc1cc(C2=c3c(c4ccc(C(C)(C)C)cc4c4cc(C(C)(C)C)ccc34)=[N+]3C2=Nc2c(-c4cc(OC)c(OC)c(OC)c4)c4c5ccc(C(C)(C)C)cc5c5cc(C(C)(C)C)ccc5c4n2[B-]3(F)F)cc(OC)c1OC
photoluminescence quantum yield (in Cc1ccccc1): 0.01

SMILES: CC(=O)Nc1ccc(C2=C/C(=C\c3ccc([N+](=O)[O-])cc3)C(=O)O2)cc1
photoluminescence quantum yield (in C1COCCO1): 0.043

SMILES: C(#Cc1ccc(-n2c3ccccc3c3ccccc32)cc1)c1ccc(-c2nc(-c3ccc(C#Cc4ccc(-n5c6ccccc6c6ccccc65)cc4)cc3)nc(-c3ccc(C#Cc4ccc(-n5c6ccccc6c6ccccc65)cc4)cc3)n2)cc1
photoluminescence quantum yield (in C1CCOC1): 0.69
photoluminescence quantum yield (in CC#N): 0.02
photoluminescence quantum yield (in CCCCCC): 0.94
photoluminescence quantum yield (in Cc1ccccc1): 1
photoluminescence quantum yield (in ClCCl): 0.67

SMILES: CN(C)c1ccc(C2=Nc3scc(-c4ccccc4)[n+]3[B-](F)(F)O2)cc1
photoluminescence quantum yield (in C1CCOC1): 0.75
photoluminescence quantum yield (in CC#N): 0.08
photoluminescence quantum yield (in Cc1ccccc1): 0.94
photoluminescence quantum yield (in ClCCl): 0.89

SMILES: C(=C\c1ccc(-n2c3ccccc3c3ccccc32)cc1)/c1ccc(-c2ccc(/C=C/c3ccc(-n4c5ccccc5c5ccccc54)cc3)cc2)cc1
photoluminescence quantum yield (in Cc1ccccc1): 0.89
photoluminescence quantum yield [1]: 0.98

SMILES: c1ccc2c(c1)ccc1ccc3ccc4ccc5ccccc5c4c3c12
photoluminescence quantum yield (in ClCCl): 0.02

SMILES: O=c1c2ccc(-c3ccc(N(c4ccccc4)c4ccccc4)cc3)cc2sc2cccc(-c3ccc(N(c4ccccc4)c4ccccc4)cc3)c12
photoluminescence quantum yield [1]: 0.025

SMILES: COC(=O)C(CCCCNC(=O)CCNc1cccc2ccccc12)NC(C)=O (configuration not stated)
photoluminescence quantum yield (in CCO): 0.54

SMILES: Cc1cn2cc(-c3ccccc3)[n-][n+]2c1
photoluminescence quantum yield (in ClCCl): 0.074

SMILES: CC(C)(C)c1ccc2c(c1)c1cc(C(C)(C)C)ccc1n2-c1ccc2c(c1)C(=O)c1ccc(-n3c4ccc(C(C)(C)C)cc4c4cc(C(C)(C)C)ccc43)cc1C2=O
photoluminescence quantum yield (in Cc1ccccc1): 0.15
photoluminescence quantum yield [1]: 0.52
